Read-outs that look alike come from different tables or passages of the source.
Experiments:
Salmonella enterica = experiment: Anti-microbial activity assay, S. enterica; format: cell-based
Protocol: (§1) Bacterial and fungal strains (Bacillus subtilis, Staphylococcus aureus, Lactobacillus fermentum, Escherichia coli, Pseudomonas aeruginosa, Salmonella enterica and Candida albicans) were activated on TSA (Tryptic Soy Agar) and SA (Sabouraud–4% dextrose agar) media, respectively. Before the experiment, the microbial strains were grown in the corresponding liquid media at a concentration of approximately 5 × 10^5 CFU ml^−1 for bacteria and 1 × 10^3 CFU ml^−1 for fungi. The microbial suspension (190 µl) was mixed with 10 µl of the test sample, which was serially diluted twofold, and the microplate was incubated at 37°C for 16–24 h.

Candida albicans = experiment: Anti-microbial activity assay, C. albicans; format: cell-based
Protocol: as §1

MCF-7 breast cancer = experiment: MTT cytotoxicity assay, MCF-7; format: cell-based, human; conditions: Homo sapiens, MCF7, MCF-7 cell line, 72 h, mean ± s.d., three replicates
Protocol: (§2) The cytotoxic activities against the cancer cell lines KB epidermal carcinoma, A549 lung cancer, HepG2 liver cancer and MCF-7 breast cancer, as well as the healthy cell line HEK293 embryonic kidney cells, were determined using the 3-(4,5-dimethylthiazol-2-yl)-2,5-diphenyltetrazolium bromide (MTT) assay. Briefly, cell lines were grown into log phase at 37°C, 5% CO2 in DMEM-Dulbecco's modified Eagle's medium and 10% fetal bovine serum. A concentration of 1 × 10^4–3 × 10^4 cells ml^−1 was prepared depending on the cell line used for the experiment by adding 10 µl of the sample and 190 µl of the cell suspension, followed by incubation under standard conditions. After 72 h of culture, 10 µl of MTT (5 mg ml^−1) was added and incubated for 4 h. Dimethyl sulfoxide (100 µl) was added to dissolve formazan crystals and the density was measured at 540 nm using a BioTek spectrophotometer. The inhibition of cell growth was expressed as IC50 (the half-maximal inhibitory concentration) value.

Escherichia coli = experiment: Anti-microbial activity assay, E. coli; format: cell-based
Protocol: as §1

[1] = system: HEK293 embryonic kidney cells; experiment: MTT cytotoxicity assay, HEK293; format: cell-based, human; conditions: Homo sapiens, HEK293 healthy cell line, 72 h, mean ± s.d., three replicates
Protocol: as §2, with “value. Ellipticine was used as reference.” for “value.”

[2] = system: KB, MCF-7, A549, HepG2, HEK293 cell lines; experiment: MTT cytotoxicity assay, range over all tested cell lines; format: cell-based, human; conditions: Homo sapiens; range over all tested cell lines, MTT, 72 h
Protocol: as §2, with “value. Ellipticine was used as reference.” for “value.”

U251 cells = system: U251 cells; parameters: method as in PMID 34896543; conditions: U251 glioma cells; read-out: IC50, cell survival; cited from earlier work
[3] = system: hepatocellular carcinoma cell lines (Huh-7, SK-Hep-1, HA22T/VGH cell lines); conditions: cited from earlier work

In the case of `COc1cc2oc3cc(O)c(OC)c(CC=C(C)C)c3c(=O)c2c(O)c1CC=C(C)C` [β-mangostin], the IC50 (Salmonella enterica) is reported as over 32 µg/mL, the MIC (Salmonella enterica) is reported as over 32 µg/mL and the MIC (Candida albicans) is reported as “greater than 32 μg ml^−1”. The IC50 (Candida albicans; Candida albicans, read-out: IC50) was over 32 µg/mL, the MIC (Candida albicans; Candida albicans, read-out: MIC) was over 32 µg/mL and the IC50 (MCF-7 breast cancer) was 18 ± 8.1 µM. The MIC (Escherichia coli) was “greater than 32 μg ml^−1”, the IC50 (Escherichia coli; Escherichia coli) was over 32 µg/mL and the MIC (Escherichia coli; Escherichia coli, read-out: MIC) was over 32 µg/mL. For the same compound, the IC50 [1] was 15.6 ± 6.5 µM, the IC50 [2] was 15.4 to 21.1 µM and the IC50 (U251 cells) was 5.8 µM. For the same compound, the “cytotoxicity or cell cycle suppression” value [3] was “did not cause cytotoxicity or cell cycle suppression”.

Reference: article PMC10427817, “Bioactivities of β-mangostin and its new glycoside derivatives synthesized by enzymatic reactions” (Royal Society Open Science, 2023)
